# Results reported in patent US10457707B2, “Substituted urea depsipeptide analogs as activators of the CLPP endopeptidase” (priority 2015, dated 2019).
# Where two headings read alike, the source gives them in different places. *1 amine or outer side, *2 acyl side, *3 side chain or, on linkers, in order; H or OH if unused. Where a SMILES comes first, the peptide text is derived from it. Bridges are numbered along the chain shown (N, C = ends). [ ]: non-standard residue; d: D form. The star is where a group is joined. NH(1,3-benzodioxol-5-yl) = c1cc2c(cc1N*)OCO2; Phe(3,5-F2) = N[C@@H](Cc1cc(F)cc(F)c1)C(=O)O; NH(1-Me-indolin-5-yl) = CN1CCc2cc(N*)ccc21; NH(4-OCF3-phenyl) = FC(F)(F)Oc1ccc(N*)cc1; Morpholine(3S-CO) = O=C(O)[C@@H]1COCCN1; Pro(4S-Me) = C[C@@H]1CN[C@H](C(=O)O)C1; NH(4-Cl-2-F-phenyl) = Fc1cc(Cl)ccc1N*; Pro(4R-Me) = C[C@H]1CN[C@H](C(=O)O)C1; Hyp = O=C(O)[C@@H]1C[C@@H](O)CN1; NMeT = CN[C@H](C(=O)O)[C@@H](C)O; Heptenoyl(2E) = CCCC/C=C/C(=O)*; NH(4-Me-phenyl) = Cc1ccc(N*)cc1; aThr = C[C@H](O)[C@H](N)C(=O)O; Pip = O=C(O)[C@@H]1CCCCN1; NMeA = CN[C@@H](C)C(=O)O; X4 = c1cc2c(cc1N*)CCC2; CO = O=C([*:1])[*:2]; X7 = CC/C=C/C(=O)*
# Columns and labels:
# Assay type in all cases: cell-based
# [1] = Cytotoxicity assay (CellTiter-Glo cell viability, 72 hours); details: African green monkey
# In short: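 Vero cells, 5000/well, grown overnight at 37° C, 5% CO2 in DMEM with 10% FBS, then exposed to serial compound dilutions or DMSO for 72 hours. Viability read by CellTiter-Glo luminescence. IC50 from duplicate wells, reported as range over two independent experiments.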
# [2] = system: Enterococcus faecalis, ATCC 33186; assay: Minimal inhibitory concentration assay (microbroth dilution)
# In short: (§1)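 Antibacterial activity was measured by CLSI-standard microdilution in broth, using overnight aerobic incubation at 37 °C. Growth inhibition was scored visually, and MIC taken as the lowest concentration preventing growth.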
# [3] = system: Staphylococcus aureus, USA 300; assay: Minimal inhibitory concentration assay; details: USA300, read-out: Minimal Inhibitory Concentrations S. aureus USA 300
# In short: as §1
# [4] = system: Staphylococcus aureus, USA 300 wherein ClpP is inactivated; assay: Minimal inhibitory concentration assay
# In short: as §1
# [5] = Enterococcus faecalis, ATCC33186; read-out: Minimal Inhibitory Concentrations E. faecalis ATCC 33186
# [6] = Vero cells, 72 hours, growth inhibition, read-out: Cytotoxicity IC50
# [7] = Enterococcus faecalis, ATCC33186, read-out: Minimal Inhibitory Concentrations E. faecalis ATCC 33186
Structure (SMILES),IC50 at 72 h [1] [µM],"MIC [2, 5] [µM]",MIC [3] [µM],Minimal Inhibitory Concentrations S. aureus USA 300 ΔClpP [4] [µM],"IC50 at 72 h [1, 6] [µM]","MIC [2, 7] [µM]"
"CCCC/C=C/C(=O)N[C@@H](Cc1cc(F)cc(F)c1)C(=O)N[C@@H]1C(=O)N2CCC[C@H]2C(=O)N(C)[C@@H]([C@@H](C)O)C(=O)N[C@@H](C)C(=O)N2C[C@H](C)C[C@H]2C(=O)O[C@H]1C [Compound 308, (E)-N—((S)-3-(3,5-difluorophenyl)-1-(((2R,6S,9S,11aS,17S,18S,20aS)-9-((R)-1-hydroxyethyl)-2,6,10,18-tetramethyl-5,8,11,16,20-pentaoxohexadecahydro-1H,5H,16H-dipyrrolo[2,1-c:2′,1′-l][1]oxa[4,7,10,13]tetraazacyclohexadecin-17-yl)amino)-1-oxopropan-2-yl)hept-2-enamide] ({Heptenoyl(2E)}-[Phe(3,5-F2)][aThr]P[NMeT]A[Pro(4R-Me)]; ester 2-C)",38.6 ± 1.1,0.039,0.039,>20,,
"C[C@@H]1C[C@H]2C(=O)O[C@@H](C)[C@H](NC(=O)[C@H](Cc3cc(F)cc(F)c3)NC(=O)Nc3ccc4c(c3)CCN4C)C(=O)N3CCC[C@H]3C(=O)N3CCCC[C@H]3C(=O)N[C@@H](C)C(=O)N2C1 [Compound 310, (S)-3-(3,5-difluorophenyl)-2-(3-(1-methylindolin-5-yl)ureido)-N-((2R,6S,8aS,14aS,20S,21S,23aS)-2,6,21-trimethyl-5,8,14,19,23-pentaoxooctadecahydro-1H,5H,14H,19H-pyrido[2,1-i]dipyrrolo[2,1-c:2′,1′-l][1]oxa[4,7,10,13]tetraazacyclo-hexadecin-20-yl)propanamide] ({NH(1-Me-indolin-5-yl)-CO}-[Phe(3,5-F2)][aThr]P[Pip]A[Pro(4R-Me)]; ester 2-C)",,,0.078,>20,0.4 ± 0.01,0.313
"Cc1ccc(NC(=O)N[C@@H](Cc2cc(F)cc(F)c2)C(=O)N[C@@H]2C(=O)N3C[C@H](O)C[C@H]3C(=O)N(C)[C@@H](C)C(=O)N[C@@H](C)C(=O)N3C[C@@H](C)C[C@H]3C(=O)O[C@H]2C)cc1 [Compound 214, (S)-3-(3,5-difluorophenyl)-N-((2S,6S,9S,11aS,13R,17S,18S,20aS)-13-hydroxy-2,6,9,10,18-pentamethyl-5,8,11,16,20-pentaoxohexadecahydro-1H,5H,16H-dipyrrolo[2,1-c:2′,1′-l][1]oxa[4,7,10,13]tetraazacyclohexadecin-17-yl)-2-(3-(p-tolyl)ureido)propanamide] ({NH(4-Me-phenyl)-CO}-[Phe(3,5-F2)][aThr][Hyp][NMeA]A[Pro(4S-Me)]; ester 2-C)",,,1.56,>200,> 100,0.195
"C[C@@H]1C[C@H]2C(=O)O[C@@H](C)[C@H](NC(=O)[C@H](Cc3cc(F)cc(F)c3)NC(=O)Nc3ccc(Cl)cc3F)C(=O)N3C[C@H](O)C[C@H]3C(=O)N3CCOC[C@H]3C(=O)N[C@@H](C)C(=O)N2C1 [Compound 316, (S)-2-(3-(4-chloro-2-fluorophenyl)ureido)-3-(3,5-difluorophenyl)-N-((6aS,8R,12S,13S,15aS,17R,21S,23aS)-8-hydroxy-13,17,21-trimethyl-6,11,15,20,23-pentaoxooctadecahydro-6H,11H,15H-[1,4]oxazino[3,4-i]dipyrrolo[2,1-c:2′,1′-l][1]oxa[4,7,10,13]tetraazacyclo-hexadecin-12-yl)propanamide] ({NH(4-Cl-2-F-phenyl)-CO}-[Phe(3,5-F2)][aThr][Hyp][Morpholine(3S-CO)]A[Pro(4R-Me)]; ester 2-C)",> 100,0.078,0.156,>20,,
"CCCC/C=C/C(=O)N[C@@H](Cc1cc(F)cc(F)c1)C(=O)N[C@@H]1C(=O)N2C[C@H](O)C[C@H]2C(=O)N2CCOC[C@H]2C(=O)N[C@@H](C)C(=O)N2C[C@H](C)C[C@H]2C(=O)O[C@H]1C [Compound 309, (E)-N—((S)-3-(3,5-difluorophenyl)-1-(((6aS,8R,12S,13S,15aS,17R,21S,23aS)-8-hydroxy-13,17,21-trimethyl-6,11,15,20,23-pentaoxooctadecahydro-6H,11H,15H-[1,4]oxazino[3,4-i]dipyrrolo[2,1-c:2′,1′-l][1]oxa[4,7,10,13]tetraazacyclohexadecin-12-yl)amino)-1-oxopropan-2-yl)hept-2-enamide] ({Heptenoyl(2E)}-[Phe(3,5-F2)][aThr][Hyp][Morpholine(3S-CO)]A[Pro(4R-Me)]; ester 2-C)",> 100,0.039,0.625,>20,,
"C[C@@H]1C[C@H]2C(=O)O[C@@H](C)[C@H](NC(=O)[C@H](Cc3cc(F)cc(F)c3)NC(=O)Nc3ccc4c(c3)CCC4)C(=O)N3CCC[C@H]3C(=O)N3CCCC[C@H]3C(=O)N[C@@H](C)C(=O)N2C1 [Compound 302, (S)-3-(3,5-difluorophenyl)-2-(3-(2,3-dihydro-1H-INDEN-5-yl)ureido)-N-((2R,6S,8aS,14aS,20S,21S,23aS)-2,6,21-trimethyl-5,8,14,19,23-pentaoxooctadecahydro-1H,5H,14H,19H-pyrido[2,1-i]dipyrrolo[2,1-c:2′,1′-l][1]oxa[4,7,10,13]tetraazacyclohexadecin-20-yl)propanamide] ({X4-CO}-[Phe(3,5-F2)][aThr]P[Pip]A[Pro(4R-Me)]; ester 2-C)",,,0.059,>20,13.2 ± 1.1,0.02
"CC/C=C/C(=O)N[C@@H](Cc1cc(F)cc(F)c1)C(=O)N[C@@H]1C(=O)N2C[C@H](O)C[C@H]2C(=O)N2CCCC[C@H]2C(=O)N[C@@H](C)C(=O)N2C[C@H](C)C[C@H]2C(=O)O[C@H]1C [Compound 300] (X7-[Phe(3,5-F2)][aThr][Hyp][Pip]A[Pro(4R-Me)]; ester 2-C)",,,2.5,>20,> 100,0.039
"C[C@@H]1C[C@H]2C(=O)O[C@@H](C)[C@H](NC(=O)[C@H](Cc3cc(F)cc(F)c3)NC(=O)Nc3ccc4c(c3)CCN4C)C(=O)N3C[C@H](O)C[C@H]3C(=O)N3CCOC[C@H]3C(=O)N[C@@H](C)C(=O)N2C1 [Compound 315, (S)-3-(3,5-difluorophenyl)-N-((6aS,8R,12S,13S,15aS,17R,21S,23aS)-8-hydroxy-13,17,21-trimethyl-6,11,15,20,23-pentaoxooctadecahydro-6H,11H,15H-[1,4]oxazino[3,4-i]dipyrrolo[2,1-c:2′,1′-l][1]oxa[4,7,10,13]tetraazacyclohexadecin-12-yl)-2-(3-(1-methylindolin-5-yl)ureido)propanamide] ({NH(1-Me-indolin-5-yl)-CO}-[Phe(3,5-F2)][aThr][Hyp][Morpholine(3S-CO)]A[Pro(4R-Me)]; ester 2-C)",,,10,>20,> 100,0.625
"C[C@@H]1C[C@H]2C(=O)O[C@@H](C)[C@H](NC(=O)[C@H](Cc3cc(F)cc(F)c3)NC(=O)Nc3ccc4c(c3)OCO4)C(=O)N3C[C@H](O)C[C@H]3C(=O)N3CCOC[C@H]3C(=O)N[C@@H](C)C(=O)N2C1 [Compound 319, (S)-2-(3-(benzo[d][1,3]dioxol-5-yl)ureido)-3-(3,5-difluorophenyl)-N-((6aS,8R,12S,13S,15aS,17R,21S,23aS)-8-hydroxy-13,17,21-trimethyl-6,11,15,20,23-pentaoxooctadecahydro-6H,11H,15H-[1,4]oxazino[3,4-i]dipyrrolo[2,1-c:2′,1′-l][1]oxa[4,7,10,13]tetraazacyclo-hexadecin-12-yl)propanamide] ({NH(1,3-benzodioxol-5-yl)-CO}-[Phe(3,5-F2)][aThr][Hyp][Morpholine(3S-CO)]A[Pro(4R-Me)]; ester 2-C)",> 100,0.313,25,25,,
"C[C@@H]1C[C@H]2C(=O)O[C@@H](C)[C@H](NC(=O)[C@H](Cc3cc(F)cc(F)c3)NC(=O)Nc3ccc(Cl)cc3F)C(=O)N3CCC[C@H]3C(=O)N3CCCC[C@H]3C(=O)N[C@@H](C)C(=O)N2C1 [Compound 307, (S)-2-(3-(4-chloro-2-fluorophenyl)ureido)-3-(3,5-difluorophenyl)-N-((2R,6S,8aS,14aS,20S,21S,23aS)-2,6,21-trimethyl-5,8,14,19,23-pentaoxooctadecahydro-1H,5H,14H,19H-pyrido[2,1-i]dipyrrolo[2,1-c:2′,1′-l][1]oxa[4,7,10,13]tetraazacyclo-hexadecin-20-yl)propanamide] ({NH(4-Cl-2-F-phenyl)-CO}-[Phe(3,5-F2)][aThr]P[Pip]A[Pro(4R-Me)]; ester 2-C)",9.5 ± 0.8,< 0.02,< 0.02,>20,,
"C[C@H]1C[C@H]2C(=O)O[C@@H](C)[C@H](NC(=O)[C@H](Cc3cc(F)cc(F)c3)NC(=O)Nc3ccc(OC(F)(F)F)cc3)C(=O)N3CCC[C@H]3C(=O)N3CCOC[C@H]3C(=O)N[C@@H](C)C(=O)N2C1 [Compound 201, (S)-3-(3,5-difluorophenyl)-2-(3-(4-(trifluoromethoxy)phenyl)ureido)-N-((6aS,12S,13S,15aS,17S,21S,23aS)-13,17,21-trimethyl-6,11,15,20,23-pentaoxooctadecahydro-6H,11H,15H-[1,4]oxazino[3,4-i]dipyrrolo[2,1-c:2′,1′-l][1]oxa[4,7,10,13]tetraazacyclohexadecin-12-yl)propanamide] ({NH(4-OCF3-phenyl)-CO}-[Phe(3,5-F2)][aThr]P[Morpholine(3S-CO)]A[Pro(4S-Me)]; ester 2-C)",26 ± 2.6,0.098,0.049,50,,
